Assay results as given in patent US10905665B2, “Chemical modulators of signaling pathways and therapeutic use” (Duke University, priority 2015, dated 2021).
Like-named read-outs stand apart in the source and are kept apart here.

Test system: Wnt/β-catenin transcription
Test: Wnt-3A-stimulated TOPFlash reporter assay in HEK293 cells
Type: cell-based
Details: for IC50: Wnt-3A conditioned medium, 8 hour treatment, read-out: Inhibition Wnt/β-catenin transcription TopFlash IC50
Experimental: Stably transfected cells were seeded in 100 μl of cell growth medium/well in 96-well plates at 100% confluency. Fifty microliters of Wnt-3A conditioned medium containing the chemical compounds to be tested or DMSO was added to each well. After an 8 hour treatment, the cells were washed once with PBS and lysed with 55 μl of Passive Lysis Buffer supplied in the Dual-Luciferase Reporter Assay kit (Promega, Madison, Wis.). Twenty-five microliters of cell lysate was used for measuring luciferase activity in a 96-well plate reader (FluoStar Optima, BMG Labtech, Chicago, Ill.). Data were fit using GraphPad Prism (mean±SEM, n>=2).

SMILES: O=C(Nc1ccc([N+](=O)[O-])cc1)c1cc(Cl)ccc1O [B, 5-chloro-2-hydroxy-N-(4-nitrophenyl)benzamide, reference compound]
- IC50: > 12 µM

SMILES: Cc1ccc(S(=O)(=O)Nc2ccccc2C(=O)Nc2ccc([N+](=O)[O-])cc2)cc1 [C, 2-((4-methylphenyl)sulfonamido)-N-(4-nitrophenyl)benzamide, reference compound]
- Inhibition Wnt/β-catenin transcription TopFlash, % inhibition @ 1 μM: 47% inhibition

SMILES: O=C(Nc1c(F)cccc1F)c1cc(Cl)ccc1O [Compound 21, 5-chloro-N-(2,6-difluorophenyl)-2-hydroxybenzamide]
- IC50 (Homo sapiens, HEK293, 8 h): > 12 µM

SMILES: Cc1cc([N+](=O)[O-])ccc1NC(=O)c1cc(Cl)ccc1O [Compound 26, 5-chloro-2-hydroxy-N-(2-methyl-4-nitrophenyl)benzamide]
- Inhibition Wnt/β-catenin transcription TopFlash, % inhibition @ 3 μM (3 μM): 80% inhibition

SMILES: O=C(Nc1ccc(OCc2ccccc2)c(Cl)c1)c1cc(Cl)ccc1O [Compound 27, N-(4-(benzyloxy)-3-chlorophenyl)-5-chloro-2-hydroxybenzamide]
- inhibition at 2 µM (Homo sapiens, HEK293, 8 h): 75%

SMILES: O=C(Nc1ccc(C(F)(F)F)cc1Br)c1cc(Cl)ccc1O [Compound 28, N-(2-bromo-4-(trifluoromethyl)phenyl)-5-chloro-2-hydroxybenzamide]
- Inhibition Wnt/β-catenin transcription TopFlash, % inhibition @ 1 μM: 82% inhibition

SMILES: O=C(CCCCCNC(=O)CCCCC1SCC2NC(=O)NC21)NCCCCCC(=O)NCCOCCOCCOc1cc([N+](=O)[O-])ccc1NC(=O)c1cc(Cl)ccc1O (stereo not shown) [Compound 29, 5-chloro-2-hydroxy-N-(4-nitro-2-((10,17,24-trioxo-28-(2-oxohexahydro-1H-thieno[3,4-d]imidazol-4-yl)-3,6-dioxa-9,16,23-triazaoctacosyl)oxy)phenyl)benzamide]
- IC50 (Homo sapiens, HEK293, 8 h): > 12 µM

SMILES: C=CCOc1cc([N+](=O)[O-])ccc1NC(=O)c1cc(Cl)ccc1O [Compound 30, N-(2-(allyloxy)-4-nitrophenyl)-5-chloro-2-hydroxybenzamide]
- inhibition at 10 µM (Homo sapiens, HEK293, 8 h): 98%

SMILES: O=CCOc1cc([N+](=O)[O-])ccc1NC(=O)c1cc(Cl)ccc1O [Compound 31, 5-chloro-2-hydroxy-N-(4-nitro-2-(2-oxoethoxy)phenyl)benzamide]
- inhibition at 2 µM (Homo sapiens, HEK293, 8 h): 55%

SMILES: O=C(Nc1ccc([N+](=O)[O-])c(F)c1)c1cc(Cl)ccc1O [Compound 32, 5-chloro-N-(3-fluoro-4-nitrophenyl)-2-hydroxybenzamide]
- inhibition at 10 µM (Homo sapiens, HEK293, 8 h): 90%

SMILES: C#CCOc1cc([N+](=O)[O-])ccc1NC(=O)c1cc(Cl)ccc1O [Compound 33, 5-chloro-2-hydroxy-N-(4-nitro-2-(prop-2-yn-1-yloxy)phenyl)benzamide]
- inhibition at 2 µM (Homo sapiens, HEK293, 8 h): 45%

SMILES: O=C(Nc1ccc([N+](=O)[O-])c(N2CCOCC2)c1)c1cc(Cl)ccc1O [Compound 34, 5-chloro-2-hydroxy-N-(3-morpholino-4-nitrophenyl)benzamide]
- inhibition at 10 µM (Homo sapiens, HEK293, 8 h): 40%

SMILES: COc1cc(NC(=O)c2cc(Cl)ccc2O)ccc1[N+](=O)[O-] [Compound 35, 5-chloro-2-hydroxy-N-(3-methoxy-4-nitrophenyl)benzamide]
- inhibition at 10 µM (Homo sapiens, HEK293, 8 h): 40%

SMILES: O=C(Nc1ccc([N+](=O)[O-])c(Cl)c1)c1cc(Cl)ccc1O [Compound 36, 5-chloro-N-(3-chloro-4-nitrophenyl)-2-hydroxybenzamide]
- inhibition at 2 µM (Homo sapiens, HEK293, 8 h): 90%

SMILES: C#CCOc1cc(N=[N+]=[N-])ccc1NC(=O)c1cc(Cl)ccc1O [Compound 37, N-(4-azido-2-(prop-2-yn-1-yloxy)phenyl)-5-chloro-2-hydroxybenzamide]
- inhibition at 2 µM (Homo sapiens, HEK293, 8 h): 40%

SMILES: O=C(Nc1ccc(C(F)(F)F)c(Cl)c1)c1cc(Cl)ccc1O [Compound 38, 5-chloro-N-(3-chloro-4-(trifluoromethyl)phenyl)-2-hydroxybenzamide]
- inhibition at 2 µM (Homo sapiens, HEK293, 8 h): 90%

SMILES: C#CCCCCOc1cc([N+](=O)[O-])ccc1NC(=O)c1cc(Cl)ccc1O [Compound 39, 5-chloro-N-(2-(hex-5-yn-1-yloxy)-4-nitrophenyl)-2-hydroxybenzamide]
- inhibition at 2 µM (Homo sapiens, HEK293, 8 h): 80%

SMILES: O=C(Nc1ccccc1)c1ccc(NC(=O)c2cc(Cl)ccc2O)cc1 [Compound 40, 5-chloro-2-hydroxy-N-(4-(phenylcarbamoyl)phenyl)benzamide]
- IC50 (Homo sapiens, HEK293, 8 h): 33 µM

SMILES: O=C(Nc1ccc([N+](=O)[O-])cc1Cl)c1cc(-c2ccccc2)ccc1O [Compound 41, N-(2-chloro-4-nitrophenyl)-4-hydroxy-[1,1′-biphenyl]-3-carboxamide]
- Inhibition Wnt/β-catenin transcription TopFlash, % inhibition @ 1 μM: 90% inhibition

SMILES: O=C(Nc1ccc([N+](=O)[O-])cc1Cl)c1cc(-c2ccc(F)cc2F)ccc1O [Compound 42, N-(2-chloro-4-nitrophenyl)-2′,4′-difluoro-4-hydroxy-[1,1′-biphenyl]-3-carboxamide]
- inhibition at 2 µM (Homo sapiens, HEK293, 8 h): 90%

SMILES: O=C(Nc1ccc(C(F)(F)F)cc1Cl)c1c(O)ccc2ccccc12 [Compound 43, N-(2-chloro-4-(trifluoromethyl)phenyl)-2-hydroxy-1-naphthamide]
- Inhibition Wnt/β-catenin transcription TopFlash, % inhibition @ 5 μM: 50% inhibition

SMILES: O=C(Nc1ccc(C(F)(F)F)cc1Cl)c1cc2ccccc2cc1O [Compound 44, N-(2-chloro-4-(trifluoromethyl)phenyl)-3-hydroxy-2-naphthamide]
- Inhibition Wnt/β-catenin transcription TopFlash, % inhibition @ 5 μM: 80% inhibition

SMILES: O=C(Nc1ccc(C(F)(F)F)cc1Cl)c1ccc2ccccc2c1O [Compound 45, N-(2-chloro-4-(trifluoromethyl)phenyl)-1-hydroxy-2-naphthamide]
- Inhibition Wnt/β-catenin transcription TopFlash, % inhibition @ 5 μM: 60% inhibition

SMILES: COc1cc(O)c(C(=O)Nc2ccc([N+](=O)[O-])cc2Cl)cc1OC [Compound 46, N-(2-chloro-4-nitrophenyl)-2-hydroxy-4,5-dimethoxybenzamide]
- Inhibition Wnt/β-catenin transcription TopFlash, result in words (up to 12 μM): No inhibit. up

SMILES: COc1cc(O)c(C(=O)Nc2ccc(OCc3ccccc3)c(Cl)c2)cc1OC [Compound 47, N-(4-(benzyloxy)-3-chlorophenyl)-2-hydroxy-4,5-dimethoxybenzamide]
- Inhibition Wnt/β-catenin transcription TopFlash, result in words (concentration not given): stimulates

SMILES: Cc1ccc(S(=O)(=O)Nc2ccc(Br)cc2C(=O)Nc2ccc(C(F)(F)F)cc2)cc1 [Compound 48, 5-bromo-2-((4-methylphenyl)sulfonamido)-N-(4-(trifluoromethyl)phenyl)benzamide]
- inhibition at 10 µM (Homo sapiens, HEK293, 8 h): 93%

SMILES: O=C(Nc1ccc(C(F)(F)F)cc1)c1cnc2ccccc2c1O [Compound 49, 4-hydroxy-N-(4-(trifluoromethyl)phenyl)quinoline-3-carboxamide]
- Inhibition Wnt/β-catenin transcription TopFlash, result in words (up to 12 μM): Stimulates up

SMILES: CS(=O)(=O)Nc1ccc(Cl)cc1C(=O)Nc1ccc([N+](=O)[O-])cc1Cl [Compound 51, 5-chloro-N-(2-chloro-4-nitrophenyl)-2-(methylsulfonamido)benzamide]
- inhibition at 10 µM (Homo sapiens, HEK293, 8 h): 70%

SMILES: COc1ccc(C(=O)Nc2ccc([N+](=O)[O-])cc2Cl)c(O)c1 [Compound 53, N-(2-chloro-4-nitrophenyl)-2-hydroxy-4-methoxybenzamide]
- inhibition at 2 µM (Homo sapiens, HEK293, 8 h): 70%

SMILES: COc1cc(O)c(C(=O)Nc2ccc([N+](=O)[O-])cc2Cl)cc1Cl [Compound 54, 5-chloro-N-(2-chloro-4-nitrophenyl)-2-hydroxy-4-methoxybenzamide]
- Inhibition Wnt/β-catenin transcription TopFlash, % inhibition @ 1 μM: 70% inhibition

SMILES: COc1cc(O)c(C(=O)Nc2ccc(F)cc2Cl)cc1Cl [Compound 55, 5-chloro-N-(2-chloro-4-fluorophenyl)-2-hydroxy-4-methoxybenzamide]
- inhibition at 10 µM (Homo sapiens, HEK293, 8 h): 70%

SMILES: COc1cc(O)c(C(=O)Nc2cccc(Cl)c2)cc1Cl [Compound 56, 5-chloro-N-(3-chlorophenyl)-2-hydroxy-4-methoxybenzamide]
- Inhibition Wnt/β-catenin transcription TopFlash, result in words (up to 10 μM): No inhibition

SMILES: C=CCOc1cc([N+](=O)[O-])ccc1NC(=O)c1cc(Cl)ccc1OC(C)=O [Compound 60, 2-((2-(allyloxy)-4-nitrophenyl)carbamoyl)-4-chlorophenyl acetate]
- inhibition at 2 µM (Homo sapiens, HEK293, 8 h): 80%

SMILES: CCCCCCCCCCCCCCCCCC(=O)Oc1ccc(Cl)cc1C(=O)Nc1ccc([N+](=O)[O-])cc1Cl [Compound 62, 4-chloro-2-((2-chloro-4-nitrophenyl)carbamoyl)phenyl stearate]
- inhibition at 10 µM (Homo sapiens, HEK293, 8 h): 70%

SMILES: CCCCCCC(=O)Oc1ccc(Cl)cc1C(=O)Nc1ccc([N+](=O)[O-])cc1Cl [Compound 63, 4-chloro-2-((2-chloro-4-nitrophenyl)carbamoyl)phenyl heptanoate]
- IC50 (Homo sapiens, HEK293, 8 h): 0.5 µM

SMILES: CC(C)C(=O)Oc1ccc(Cl)cc1C(=O)Nc1ccc([N+](=O)[O-])cc1Cl [Compound 64, 4-chloro-2-((2-chloro-4-nitrophenyl)carbamoyl)phenyl isobutyrate]
- Inhibition Wnt/β-catenin transcription TopFlash, % inhibition @ 0.5 μM: 70% inhibition

SMILES: CC(C)(C)OC(=O)CCC(=O)Oc1ccc(Cl)cc1C(=O)Nc1ccc([N+](=O)[O-])cc1Cl [Compound 65, tert-butyl (4-chloro-2-((2-chloro-4-nitrophenyl)carbamoyl)phenyl) succinate]
- Inhibition Wnt/β-catenin transcription TopFlash, % inhibition @ 0.5 μM: 60% inhibition

SMILES: CCCC(CCC)C(=O)Oc1ccc(Cl)cc1C(=O)Nc1ccc([N+](=O)[O-])cc1Cl [Compound 66, 4-chloro-2-((2-chloro-4-nitrophenyl)carbamoyl)phenyl 2-propylpentanoate]
- Inhibition Wnt/β-catenin transcription TopFlash, % inhibition @ 0.5 μM: 30% inhibition

SMILES: O=C(CCCCCN1C(=O)C=CC1=O)Oc1ccc(Cl)cc1C(=O)Nc1ccc([N+](=O)[O-])cc1Cl [Compound 67, 4-chloro-2-((2-chloro-4-nitrophenyl)carbamoyl)phenyl 6-(2,5-dioxo-2,5-dihydro-1H-pyrrol-1-yl)hexanoate]
- Inhibition Wnt/β-catenin transcription TopFlash, % inhibition @ 0.5 μM: 75% inhibition

SMILES: CCCCCCCC/C=C\CCCCCCCC(=O)Oc1ccc(Cl)cc1C(=O)Nc1ccc([N+](=O)[O-])cc1Cl [Compound 68, 4-chloro-2-((2-chloro-4-nitrophenyl)carbamoyl)phenyl oleate]
- inhibition at 2 µM (Homo sapiens, HEK293, 8 h): 60%
